Bridge positions count the residues as written; N and C are the ends. Peptide text beside a SMILES is read from it.
Key:
[1] = target: T1, green fluorescent protein (GFP)-fused human ferroportin (Homo sapiens, UniProt Q9NP59); test: Hepcidin bioactivity assay: GFP-ferroportin internalization and degradation; assay type: cell-based; settings: for potency as inducer of ferroportin degradation: synthetic peptides, compared with hepcidin-25
T1 construct: expressed in transfected cells
T1 sequence (Q9NP59 1-571): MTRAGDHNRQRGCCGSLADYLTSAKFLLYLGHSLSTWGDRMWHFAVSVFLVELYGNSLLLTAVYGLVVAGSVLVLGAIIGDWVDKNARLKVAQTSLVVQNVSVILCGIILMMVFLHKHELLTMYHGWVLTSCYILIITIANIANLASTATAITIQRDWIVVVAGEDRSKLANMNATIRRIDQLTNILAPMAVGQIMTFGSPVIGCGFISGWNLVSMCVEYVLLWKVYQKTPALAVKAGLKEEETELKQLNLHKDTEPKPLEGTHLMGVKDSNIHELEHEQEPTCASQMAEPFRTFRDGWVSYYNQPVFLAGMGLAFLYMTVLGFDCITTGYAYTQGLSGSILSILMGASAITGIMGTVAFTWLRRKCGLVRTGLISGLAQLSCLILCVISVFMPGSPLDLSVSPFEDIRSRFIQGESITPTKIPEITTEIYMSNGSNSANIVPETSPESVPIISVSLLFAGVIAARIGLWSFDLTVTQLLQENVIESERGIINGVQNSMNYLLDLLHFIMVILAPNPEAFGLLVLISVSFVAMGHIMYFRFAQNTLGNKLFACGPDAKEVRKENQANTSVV
Description: A stable cell line engineered for inducible expression of green fluorescent protein (GFP)-fused human ferroportin was used as a test system to determine hepcidin-24 activity relative to hepcidin-25, 22 and 20. In this cell system, ferroportin internalization and degradation provided a means to quantify hepcidin activity. The assay was implemented basically as described by Nemeth et al., [33] except that fluorescence was quantified in triplicate wells on a microplate reader. To determine EC50 values for hepcidin-25 and hepcidin-24, a curve was fitted by nonlinear regression with a four parameter logistic equation using Prism v5 (GraphPad).
Figure 5 Hepcidin-mediated ferroportin internalization. Different concentrations of synthetic hepcidin-25, -24, -22 and -20 (indicated in nM on the horizontal axis) were added to the growth medium of a stable cell line that expresses green fluorescent protein-fused ferroportin (GFP-FPN). Hepcidin-mediated GFP-FPN internalization and degradation was quantified by measuring cellular fluorescence levels in arbitrary units.

[2] = average, % of fresh, 10 IC patients and 5 controls, n = 15/8/6/9, hepcidin-20 unreliable (additional peak); for Hepcidin level after one week at -20°C, EDTA plasma: CV (Hep-25/-24/-22/-20) 11/12/11/28
Protocol: (§1) Samples were used for measurement of hepcidin between 4–7 hrs after blood drawing and/or pooled and/or stored in aliquots at various temperatures for prolonged periods of time.
(§2) Fresh samples were measured within 2–4 hrs hours after blood drawing and stored in aliquots at various temperatures for prolonged incubation.
(§3) Mass-to-charge (m/z) spectra were generated by using MALDI-TOF MS (Microflex LT, Bruker Daltonics). Spectra were analyzed by using Bruker Daltonics FlexAnalysis software. […] Total hepcidin concentration was defined as the sum of hepcidin-25, -24, -22, and -20 concentrations.
(§4) Using the novel heavy hepcidin-25 internal standard, we assessed changes in hepcidin-25 and the smaller isoforms in various samples containing various anticoagulants ex vivo at room temperature (RT), 4°C, −20°C and −80°C. More specifically, changes in hepcidin concentrations relative to those found in freshly collected samples were determined i) at storage at RT and 4°C on day 0 (fresh samples), 1 (14–22 hrs), 2, 3, and 7 days after sampling/storage, ii) at −20°C after 1 week, and after 1, 4 and 6 months of storage and iii) at −80°C at after 6 months of storage.

[3] = in vitro; settings: human
Protocol: as §1, §2, §3, §4

[4] = Stability of hepcidin in plasma/serum at room temperature (WCX-TOF MS); assay type: in vitro ADME, human; settings: for Hepcidin level after one week at RT / Hepcidin level after one day at RT: % of fresh sample, human heparin plasma, 19 IC patients + 5 controls, results <1.0 nM removed, WCX-TOF MS, hepcidin-25^+40 internal standard, n = 24/15/13/18/11; for Hepcidin level after one week at RT: CV (Hep-25/-24/-22/-20/Total) 23/29/29/38/17; for Hepcidin level after one day at RT: CV (Hep-25/-24/-22/-20/Total) 8/21/14/25/5; for Hepcidin level after one week at RT, without protease inhibitors / Hepcidin level after one day at RT, without protease inhibitors: results <1 nM excluded; for Hepcidin level after one week at RT, without protease inhibitors: CV (Hep-25/-24/-22/-20) 30/31/23/41; for Hepcidin level after one day at RT, without protease inhibitors: CV (Hep-25/-24/-22/-20) 13/20/11/11; for remaining at 168 h / remaining at 1 day: human; for remaining at 168 h: read-out: Hepcidin level after one week at RT, with protease inhibitors; for remaining at 1 day: read-out: Hepcidin level after one day at RT, with protease inhibitors
Protocol: Spectra were analyzed by using Bruker Daltonics FlexAnalysis software.
To assess the stability of hepcidin in serum and plasma matrices, we kept samples from intensive care patients (n = 20) and healthy controls (n = 5) at room temperature for 0–7 days followed by WCX-TOF MS analysis using the hepcidin-25^+40 internal standard. […] For the samples at day 1 and day 7, the mean decrease in hepcidin-25 for the 5 controls and 20 intensive care patients was 90% (CV, 8% ) and 55% (CV, 23%), respectively (Table 3).

[5] = average, % of fresh, 10 IC patients and 5 controls; for Hepcidin level after one day at 4°C, EDTA plasma: CV (Hep-25/-24/-22/-20) 11/6/11/22
Protocol: as §1, §2, §3, §4

[6] = in vitro; settings: human; remark: listed apart in the source
Protocol: as §1, §2, §3, §4

[7] = average, % of fresh, 7 days, heparin plasma, 10 IC patients, n = 10/8/7/8
[8] = average, % of fresh, heparin plasma, 10 IC patients, n = 10/8/7/8
[9] = average, % of fresh, 7 days, heparin plasma, 10 IC patients, Complete Mini (Roche), CV (Hep-25/-24/-22/-20) 25/35/9/25, n = 10/8/7/8
[10] = average, % of fresh, heparin plasma, 10 IC patients, Complete Mini (Roche), 1 tablet in 200 µL PBS, 20 µL per 1 ml plasma, CV (Hep-25/-24/-22/-20) 8/30/4/14, n = 10/8/7/8
[11] = results <1.0 nM deleted, n = 15/8/6/9
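Throughout, for Hepcidin level after one month at -20°C, EDTA plasma: hepcidin in stored plasma or serum quantified by MALDI-TOF MS against a heavy hepcidin-25 internal standard, expressed relative to concentrations in freshly collected samples.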
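Throughout, for Hepcidin level after one week at -20°C, EDTA plasma: hepcidin in stored plasma or serum quantified by MALDI-TOF MS against a heavy hepcidin-25 internal standard, expressed relative to concentrations in freshly collected samples.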

Compound: CC[C@H](C)[C@H](N)C(=O)N[C@H]1CSSC[C@@H](C(=O)N[C@@H](CCCCN)C(=O)N[C@H](C(=O)O)[C@@H](C)O)NC(=O)[C@@H]2CSSC[C@H](NC(=O)[C@H](Cc3ccccc3)NC(=O)[C@H]([C@@H](C)CC)NC1=O)C(=O)N[C@H]1CSSC[C@H](NC(=O)[C@H](CCCCN)NC(=O)[C@H](CO)NC(=O)[C@H](CCCNC(=N)N)NC(=O)[C@H](Cc3c[nH]cn3)NC(=O)[C@@H]3CSSC[C@H](NC(=O)CNC1=O)C(=O)N3)C(=O)NCC(=O)N[C@@H](CCSC)C(=O)N2 [Hepcidin-20] (H-ICIFCCGCCHRSKCGMCCKT-OH; disulfide 2-18, 5-17, 6-14, 8-9 (inferred); N-terminus and C-terminus assumed)
- activity relative to hepcidin-24 (fold lower) [1]: at least 10 fold
- potency as inducer of ferroportin degradation [1]: significantly less potent inducer of ferroportin degradation than hepcidin-25
- Hepcidin level after one month at -20°C, EDTA plasma ([2]; 4 weeks, CV (Hep-25/-24/-22/-20) 9/11/19/40): 210%
- Hepcidin level after one week at -20°C, EDTA plasma [2]: 183%
- remaining at 672 h ([3]; heparin plasma): 102%
- Hepcidin level after one week at RT ([4]; average, 7 days): 138%
- Hepcidin level after one day at RT ([4]; average): 115%
- Hepcidin level after one week at RT, without protease inhibitors [4, 7]: 164%
- Hepcidin level after one day at RT, without protease inhibitors [4, 8]: 141%
- level of isoform emerging in control samples at RT ([4]; heparin plasma, healthy controls, 0–7 days): below 1 nM
- remaining at 168 h [4, 9]: 114%
- remaining at 1 day [4, 10]: 118%
- Hepcidin level after one day at 4°C, EDTA plasma [5, 11]: 94%
- Hepcidin level after one week at 4°C, heparin plasma ([5]; 7 days, CV (Hep-25/-24/-22/-20) 5/8/8/21, n = 15/7/6/10): 114%
- Hepcidin level after one week at 4°C, EDTA plasma ([5]; 7 days, CV (Hep-25/-24/-22/-20) 9/8/18/21, n = 15/8/6/9, hepcidin-20 in stored EDTA plasma unreliable (additional peak)): 165%

Compound: CC[C@H](C)[C@@H]1NC(=O)[C@@H](NC(=O)[C@@H](NC(=O)[C@@H]2CCCN2C(=O)[C@@H](N)Cc2ccccc2)[C@@H](C)CC)CSSC[C@@H](C(=O)N[C@@H](CCCCN)C(=O)N[C@H](C(=O)O)[C@@H](C)O)NC(=O)[C@@H]2CSSC[C@H](NC(=O)[C@H](Cc3ccccc3)NC1=O)C(=O)N[C@H]1CSSC[C@H](NC(=O)[C@H](CCCCN)NC(=O)[C@H](CO)NC(=O)[C@H](CCCNC(=N)N)NC(=O)[C@H](Cc3c[nH]cn3)NC(=O)[C@@H]3CSSC[C@H](NC(=O)CNC1=O)C(=O)N3)C(=O)NCC(=O)N[C@@H](CCSC)C(=O)N2 [Hepcidin-22] (H-FPICIFCCGCCHRSKCGMCCKT-OH; disulfide 4-20, 7-19, 8-16, 10-11)
- activity relative to hepcidin-24 (fold lower) [1]: at least 10 fold
- potency as inducer of ferroportin degradation [1]: significantly less potent inducer of ferroportin degradation than hepcidin-25
- remaining at 1 week ([3]; EDTA plasma): 98%
- remaining at 672 h ([3]; EDTA plasma): 96%
- remaining at 672 h ([3]; heparin plasma): 89%
- Hepcidin level after one week at RT ([4]; average, 7 days): 150%
- Hepcidin level after one day at RT ([4]; average): 127%
- Hepcidin level after one week at RT, without protease inhibitors [4, 7]: 160%
- Hepcidin level after one day at RT, without protease inhibitors [4, 8]: 135%
- remaining at 168 h [4, 9]: 117%
- remaining at 1 day [4, 10]: 105%
- Hepcidin level after one day at 4°C, heparin plasma ([5]; results <1.0 nM deleted, CV (Hep-25/-24/-22/-20) 7/5/13/20, n = 15/7/6/10): 104%
- Hepcidin level after one day at 4°C, EDTA plasma [5, 11]: 104%
- remaining at 168 h ([6]; EDTA plasma): 106%
- remaining at 168 h ([6]; heparin plasma): 96%

Compound: CC[C@H](C)[C@@H]1NC(=O)[C@@H](NC(=O)[C@@H](NC(=O)[C@@H]2CCCN2C(=O)[C@H](Cc2ccccc2)NC(=O)[C@H](Cc2c[nH]cn2)NC(=O)[C@@H](N)[C@@H](C)O)[C@@H](C)CC)CSSC[C@@H](C(=O)N[C@@H](CCCCN)C(=O)N[C@H](C(=O)O)[C@@H](C)O)NC(=O)[C@@H]2CSSC[C@H](NC(=O)[C@H](Cc3ccccc3)NC1=O)C(=O)N[C@H]1CSSC[C@H](NC(=O)[C@H](CCCCN)NC(=O)[C@H](CO)NC(=O)[C@H](CCCNC(=N)N)NC(=O)[C@H](Cc3c[nH]cn3)NC(=O)[C@@H]3CSSC[C@H](NC(=O)CNC1=O)C(=O)N3)C(=O)NCC(=O)N[C@@H](CCSC)C(=O)N2 [Hepcidin-24] (H-THFPICIFCCGCCHRSKCGMCCKT-OH; disulfide 6-22, 9-21, 10-18, 12-13)
- EC50 [1]: 192 nM
- activity relative to hepcidin-25 (fold lower) ([1]; relative to hepcidin-25): 10 fold
- potency as inducer of ferroportin degradation [1]: significantly less potent inducer of ferroportin degradation than hepcidin-25
- Hepcidin level after one week at -20°C, EDTA plasma [2]: 96%
- remaining at 672 h ([3]; EDTA plasma): 91%
- remaining at 672 h ([3]; heparin plasma): 114%
- Hepcidin level after one week at RT ([4]; average, 7 days): 104%
- Hepcidin level after one day at RT ([4]; average): 120%
- Hepcidin level after one week at RT, with protease inhibitors [4, 9]: 133%
- Hepcidin level after one week at RT, without protease inhibitors [4, 7]: 116%
- Hepcidin level after one day at RT, with protease inhibitors [4, 10]: 122%
- Hepcidin level after one day at RT, without protease inhibitors [4, 8]: 128%
- remaining at 168 h ([6]; EDTA plasma): 113%
- remaining at 168 h ([6]; heparin plasma): 106%

From article PMC3790851, “Improved Mass Spectrometry Assay For Plasma Hepcidin: Detection and Characterization of a Novel Hepcidin Isoform” (PLoS ONE, 2013)
